{"source": "patent US6096725A", "about": "“Methods of using αGal oligosaccharides as immune system targeting agents” (Neose Technologies, Inc., priority 1997, dated 2000)", "key": {"[1]": {"tested_on": "anti-αGal IgG and IgM antibodies", "assay": "In vitro mouse laminin ELISA: soluble oligosaccharides as neutralizers of anti-αGal antibodies", "type": "binding", "settings": "serum pre-incubated with oligosaccharide 1 hour 37° C.; result in words", "source_text": "In vitro laminin ELISA evaluation of αGal oligosaccharides as neutralizers of anti-αGal antibodies. Mouse laminin is a basement membrane glycoprotein that expresses 50-70 oligosaccharides terminating in Galα1-3Gal, i.e., the αGal motif (Arumugham et al., 1986, Biochem. Biophys. Aeta 883:112). In this assay, immobilization of mouse laminin on microtiter plates serves as a capture ligand for anti-αGal antibodies. […] The example provides a method by which to determine the ability of αGal oligosaccharides and pharmaceutically acceptable derivative of the invention to bind to anti-αGal antibodies and to thereby remove these antibodies from the serum, neutralize anti-αGal antibodies, and/or target anti-αGal directed complement-mediated lytic attack to specific tissue or cell types. The example also provides a method by which the effectiveness of the methods of the invention can be evaluated and dosages determined.\nSera were mixed with serial dilutions of αGal oligosaccharides (αGal-CHO) at 37° C. for 1 hour, then added to mouse laminin-coated microtiter plates and incubated for 1 hour to allow binding. The microtiter plates were coated with 20 μg/mL mouse laminin in 50 mM NaHCO3 buffer, pH 9.5 at 4° C. overnight, blocked with SuperBlock solution (Pierce) for 2 hours, and then washed 3 times with SuperBlock solution. After washing excess serum away, bound IgG and IgM was measured by adding goat anti-human IgG (or IgM) conjugated to alkaline phosphatase and incubating for 1 hour, washing, and adding substrate (pNPP)."}, "[2]": {"tested_on": "anti-αGal antibodies (serum IgG and IgM)", "assay": "In vitro immobilized αGal pentasaccharide glycinamide ELISA", "type": "binding", "settings": "baboon serum pre-incubated with oligosaccharide 1 hour 37° C.; result in words", "source_text": "In vitro immobilized αGal oligosaccharide ELISA analysis evaluation of anti-αGal antibody titer and of αGal oligosaccharides as neutralizers of anti-αGal antibodies. This example provides an assay that may be applied to determine the ability of αGal oligosaccharides and pharmaceutically acceptable derivative of the invention to bind to anti-αGal antibodies and to thereby remove these antibodies from the serum or plasma, neutralize anti-αGal antibodies, and/or target complement-mediated lytic attack to specific tissue or cell types. Such an ELISA is additionally useful in clinical monitoring of anti-αGal antibodies in blood of patients in advance of, and following xenotransplantation of organs from animals that express the αGal epitope.\nThe derivative of the αGal pentasaccharide (αGal pentasaccharide glycinamide) was synthesized and immobilized on N-oxysuccinimide microtiter plates (Costar) (0.5 mg/ml αGal pentasaccharide glycinamide) in bicarbonate buffer, pH 9.0, overnight at 4° C.; the plate was blocked first for 1 hour with 1M ethanolamine in the same buffer and secondly with phosphate buffered saline, pH 7.4, containing 1% bovine serum albumin and 0.05% Tween 20 and 0.02% NaN3 or PBNT. PBNT was used for all three subsequent plate washes and as a diluent for the antibodies. […] The optical density at 405 nm was recorded."}, "[3]": {"assay": "Pharmacokinetics after 15 minute intravenous bolus in baboons", "type": "in vivo, baboon", "settings": "for clearance / half-life / Vd: baboon, plasma, iv, 500 umol/kg, 0.5 mMol/Kg 15 minute i.v. bolus; for Vd: read-out: Volume of Distribution", "procedure": "The pharmacokinetics of the αGal trisaccharide compositions and the αGal pentasaccharide compositions were determined by delivering to one baboon by 15 minute intravenous bolus, 0.5 mMol/Kg of one oligosaccharide and 48 hours later, delivering 0.5 mmol/Kg of the second oligosaccharide, and for a second baboon, delivering the oligosaccharides according to the same procedure, but in the reverse order.\n(§1) Three Baboons were outfitted with indwelling venous and arterial catheters to the femoral vessels, and held in place with the aid of a jacket. Oligosaccharides were administered through the catheter in a 15 minute continuous infusion.\nThe clearance is used to calculate the infusion rate needed to maintain a desired drug concentration. The half-life describes how quickly concentrations diminish with time. Mathematical formulations known in the art were applied to estimate the pharmacokinetic parameters of the αGal trisaccharide and αGal pentasaccharide. […] Compared to other drugs, the volumes of distribution of these oligosaccharides are low, less than the extravascular water volume (<400 mL/kg). The clearance is typical of compounds eliminated by GFR (glomerular filtration rate)."}, "[4]": {"tested_on": "pig kidney cells, PK-15", "assay": "In vitro cytotoxicity of human sera on PK-15 monolayers", "type": "cell-based", "settings": "sera of individual humans; result in words", "procedure": "Sera were incubated with serial dilutions of αGal oligosaccharides at 37° C. for 1 hour, then added to αGal-expressing monolayers (pig kidney cells, PK-15) in Terasaki plates for 1 hour at 37° C. Cytotoxicity was mediated by either endogenous complement, or the sera were de-complemented (heat inactivated for 30 minutes at 56° C.) and exogenous (rabbit) complement was added. After washing away excess serum, the viable dye mix \"live-dead\" (calcein AM/ethidium homodimer (Molecular Probes Inc., Eugene Oreg.)) was added and monolayers were scored for viability by fluorescence microscopy."}, "[5]": {"tested_on": "anti-αGal antibody", "settings": "Neethling et al., 1996; cited from earlier work"}, "[6]": {"tested_on": "anti-αGal antibody", "assay": "In vivo blood serum analysis: serum anti-αGal antibody neutralizing capacity in baboons", "set-up": "species or system baboon", "settings": "monovalent oligosaccharide", "source_text": "Pharmokinetics of αGal trisaccharides and αGal pentasaccharides in baboons. This example presents a study of the pharmokinetic profile and serum anti-αGal antibody neutralizing capacity in baboons of αGal trisaccharides and αGal pentasaccharides and previews the compounds' suitability for use in the prevention of hyperacute rejection of porcine organs xenotransplanted into baboons.\nas §1"}, "[7]": {"tested_on": "hyperacute rejection", "settings": "cited from earlier work"}, "[8]": {"settings": "to attain 0.5 mM steady state serum concentration"}, "[9]": {"settings": "to attain 1.0 mM steady state serum concentration"}, "[10]": {"settings": "to attain 2.0 mM steady state serum concentration"}}, "note": "Entries after “also recorded” stand apart in the source; their conditions may differ. Read-outs that look alike come from different tables or passages of the source.", "data": [{"molecule": "OC[C@H]1O[C@@H](O[C@@H]2[C@H](O)[C@@H](O)C(O)O[C@@H]2CO)[C@H](O)[C@@H](O)[C@H]1O", "note": "(some centres unmarked) [Galβ1-4Gal]", "values": [{"measurement": "Inhibition of anti-αGal IgG and IgM antibody binding to immobilized mouse laminin", "setting": "[1]", "value": "do not inhibit antibody binding"}, {"measurement": "Inhibition of serum IgG and IgM binding to immobilized αGal pentasaccharide glycinamide", "setting": "[2]", "value": "minimally"}]}, {"molecule": "CC(=O)N[C@H]1C(O)O[C@H](CO)[C@@H](O[C@@H]2O[C@H](CO)[C@H](O)[C@H](O[C@H]3O[C@H](CO)[C@H](O)[C@H](O)[C@H]3O)[C@H]2O)[C@@H]1O", "note": "(some centres unmarked) [αGal trisaccharide, Galα1-3Galβ1-4GlcNAc]", "values": [{"measurement": "clearance", "setting": "[3]; baboon 1003", "value": 4.18, "unit": "mL/min/kg"}, {"measurement": "half-life", "setting": "[3]; baboon 1003", "value": 46.8, "unit": "min"}, {"measurement": "Vd", "setting": "[3]; baboon 1003", "value": 0.288, "unit": "L/kg"}, {"measurement": "clearance", "setting": "[3]; baboon 1015", "value": 4.88, "unit": "mL/min/kg"}, {"measurement": "half-life", "setting": "[3]; baboon 1015", "value": 51.5, "unit": "min"}, {"measurement": "Vd", "setting": "[3]; baboon 1015", "value": 0.362, "unit": "L/kg"}, {"measurement": "Calculated continuous infusion, total amount", "setting": "[3]; [8]", "value": 1.04, "unit": "Kg/14 days"}, {"measurement": "Calculated loading dose", "setting": "[3]; [8]", "value": 3.82, "unit": "g/20 Kg baboon"}, {"measurement": "Calculated loading dose (bolus or 15 min infusion)", "setting": "[3]; [8]", "value": 191, "unit": "mg/kg"}, {"measurement": "Calculated continuous infusion, total amount", "setting": "[3]; [9]", "value": 2.08, "unit": "Kg/14 days"}, {"measurement": "Calculated loading dose", "setting": "[3]; [9]", "value": 7.64, "unit": "g/20 Kg baboon"}, {"measurement": "Calculated loading dose (bolus or 15 min infusion)", "setting": "[3]; [9]", "value": 382, "unit": "mg/kg"}, {"measurement": "Calculated continuous infusion, total amount", "setting": "[3]; [10]", "value": 4.15, "unit": "Kg/14 days"}, {"measurement": "Calculated loading dose", "setting": "[3]; [10]", "value": 15.28, "unit": "g/20 Kg baboon"}, {"measurement": "Calculated loading dose (bolus or 15 min infusion)", "setting": "[3]; [10]", "value": 764, "unit": "mg/kg"}, {"measurement": "Inhibition of serum cytotoxicity toward PK-15 cells", "setting": "[4]", "value": "slightly better inhibitor of cytotoxicity than αGal pentasaccharide; also recorded: inhibited slightly better by the αGal trisaccharide than by the αGal pentasaccharide"}, {"measurement": "Inhibition of anti-αGal IgG and IgM antibody binding to immobilized mouse laminin", "setting": "[1]", "value": "slightly better inhibitor of IgG (FIG. 1A) and IgM (FIG. 1B) binding to laminin than αGal pentasaccharide"}, {"measurement": "Neutralization of anti-αGal antibody in vitro, in words", "setting": "[5]", "value": "effective in neutralizing the anti-αGal antibody in vitro"}, {"measurement": "Relative effectiveness in neutralizing anti-αGal antibody in vitro", "setting": "[5]", "value": "ten times more effective than the αGal disaccharide"}, {"measurement": "Minimal serum (circulating) concentration required to inhibit hyperacute rejection / be efficacious in vivo", "setting": "[6]", "value": "≥ 1", "unit": "mM"}]}, {"molecule": "OC[C@H]1O[C@@H](O[C@H]2[C@H](O)[C@@H](O)C(O)O[C@@H]2CO)[C@H](O)[C@@H](O)[C@H]1O", "note": "(some centres unmarked) [lactose, galactoseβ1-4glucose]", "values": [{"measurement": "Inhibition of anti-αGal IgG and IgM antibody binding to immobilized mouse laminin", "setting": "[1]", "value": "do not inhibit antibody binding"}]}, {"molecule": "OC[C@H]1O[C@H](O[C@H]2[C@@H](O)[C@@H](CO)OC(O)[C@@H]2O)[C@H](O)[C@@H](O)[C@H]1O", "note": "(some centres unmarked) [αGal disaccharide, Galα1-3Gal]", "values": [{"measurement": "Neutralization of anti-αGal antibody in vitro, in words", "setting": "[5]", "value": "effective in neutralizing the anti-αGal antibody in vitro"}]}, {"molecule": "OC[C@H]1O[C@H](OC[C@H]2OC(O)[C@H](O)[C@@H](O)[C@@H]2O)[C@H](O)[C@@H](O)[C@H]1O", "note": "(some centres unmarked) [melibiose, Galα1-6Glu]", "values": [{"measurement": "Prevention of hyperacute rejection on in vivo administration", "setting": "[7]; Ye et al., 1994", "value": "failed to prevent hyperacute rejection"}, {"measurement": "Toxicity on in vivo administration", "setting": "[7]; necessary concentrations in pig/primate xenotransplantation", "value": "cytotoxic to other tissue; also recorded: proved highly toxic"}]}, {"molecule": "CC(=O)N[C@H]1[C@H](O[C@H]2[C@@H](O)[C@@H](CO)O[C@@H](O[C@H]3[C@H](O)[C@@H](O)C(O)O[C@@H]3CO)[C@@H]2O)O[C@H](CO)[C@@H](O[C@@H]2O[C@H](CO)[C@H](O)[C@H](O)[C@H]2O)[C@@H]1O", "note": "(some centres unmarked) [Galβ1-4GlcNAcβ1-3 Galβ1-4Glc]", "values": [{"measurement": "Inhibition of anti-αGal IgG and IgM antibody binding to immobilized mouse laminin", "setting": "[1]", "value": "do not inhibit antibody binding"}]}, {"molecule": "OC[C@H]1O[C@@](CO)(O[C@H]2O[C@H](CO)[C@@H](O)[C@H](O)[C@H]2O)[C@@H](O)[C@@H]1O", "note": "[sucrose]", "values": [{"measurement": "Inhibition of anti-αGal IgG and IgM antibody binding to immobilized mouse laminin", "setting": "[1]", "value": "do not inhibit antibody binding"}, {"measurement": "Inhibition of serum IgG and IgM binding to immobilized αGal pentasaccharide glycinamide", "setting": "[2]", "value": "not inhibited"}]}]}
